Legend:
[1] = test system: Winter barley; assay: Post-emergence test, degree of damage to crop plants; type: in vivo; settings: rated about three weeks after application
Protocol: (§1) The active compound or safener components are in each case dissolved in a few ml (generally 2-3 ml) of solvent (generally acetone or N,N-dimethyl-formamide), and the solutions are combined and then—if appropriate after addition of an emulsifier—diluted with water to the desired concentration. In general, an aqueous spray liquor was prepared using 0.1% of the additive Renex-36.
(§2) The test plants are grown under controlled conditions (temperature, light, atmospheric humidity) in a greenhouse. The test plants are sprayed when they have reached a height of 5-15 cm. The concentration of the spray liquor is chosen such that the particular amounts of active compound desired are applied in 500 l of water/ha.
(§3) After spraying, the pots with the test plants are kept in a greenhouse chamber under controlled conditions (temperature, light, atmospheric humidity) until the test has ended. About three weeks after the application, the degree of damage to the crop plants is rated in % damage in comparison to the development of the untreated control.
(§4) The figures denote: • 0% no damage (like untreated control) • 100% total destruction/damage

[2] = test system: Winter wheat; assay: as above; type: in vivo; settings: rated about three weeks after application
Protocol: as §1, §2, §3, §4

[3] = application rate 125 g of ai/ha
[4] = application rate 250 g of ai/ha
[5] = safener alone, application rate 50 g of ai/ha

SMILES	Winter barley observed (% damage) ([1]; application rate 60 g of ai/ha)	Winter barley observed (% damage) [1, 3]	Winter barley observed (% damage) [1, 4]	Winter wheat observed (% damage) [2, 3]	Winter wheat observed (% damage) [2, 4]	Winter barley observed (% damage) [1, 5]	Winter wheat observed (% damage) [2, 5]	also measured
Cc1cc(-c2ccc(Cl)cc2)cc(C)c1C1=C(O)C2(CCOCC2)NC1=O [Example I-1-a-4]	5%	35%	35%	–	–	–	–	–
CCc1cc(Br)cc(C)c1C1=C(O)C2(CCC(C)CC2)NC1=O (stereo not drawn) [Example I-1-a-2]	5%	20%	65%	10%	40%	–	–	–
CCc1cc(Br)cc(CC)c1C1=C(O)C(C)(C(C)C)NC1=O (stereo not drawn) [Example I-1-a-3]	–	–	40%	10%	15%	–	–	–
CCCC1(C)NC(=O)C(c2c(C)cc(C)cc2C)=C1O (stereo not drawn) [Example I-1-a-1]	–	–	–	–	–	–	–	Winter barley observed (% damage) ([1]; application rate 110 g of ai/ha): 10%; Winter barley observed (% damage) ([1]; application rate 220 g of ai/ha): 25%; Winter barley observed (% damage) ([1]; application rate 440 g of ai/ha): 70%
CCCCCC(C)OC(=O)COc1ccc(Cl)c2cccnc12 (stereo not drawn) [cloquintocet-mexyl, 1-methyl-hexyl 5-chloro-quinolin-8-oxy-acetate, reference compound]	–	–	–	–	–	0%	0%	–
CCOC(=O)C1=NN(c2ccc(Cl)cc2Cl)C(C)(C(=O)OCC)C1 (stereo not drawn) [Mefenpyr-diethyl, diethyl 1-(2,4-dichloro-phenyl)-4,5-dihydro-5-methyl-1H-pyrazole-3,5-dicarboxylate, reference compound]	–	–	–	–	–	0%	0%	–

From patent publication US7432225B2, “Selective herbicides based on substituted cyclic keto-enols and safeners” (Bayer CropScience AG, priority 2001, dated 2008)
